# Assay results taken from publication PMC4961579 (Journal of neurochemistry, 2016).
# How the values were obtained:
# Test in all cases: two-electrode voltage clamp, micro-transplanted oocytes
# Format in all cases: cell-based
# [1] = biological target: AMPA receptor with TARP gamma-8 (native, rat hippocampal synaptosomes) (Rattus norvegicus, UniProt P19490+P19491+Q8VHW5); details: read-out: % inhibition at 10 μM
# [2] = test system: NMDA receptor (native synaptic, rat prefrontal cortex synaptosomes); details: 300 µM NMDA, 30 µM glycine, -100 mV, pH 7.4
# [3] = test system: AMPA receptor (native synaptic, human cortical synaptosomes); details: antagonist; 100 µM AMPA + 100 µM cyclothiazide; -100 mV, pH 7.4
# [4] = test system: AMPA receptor (native synaptic, rat prefrontal cortex synaptosomes); details: antagonist; 100 µM AMPA + 30 µM cyclothiazide; -100 mV, pH 7.4
# [5] = test system: GABAA receptor (native synaptic, human cortical synaptosomes); details: positive allosteric modulator; 30 µM GABA; legend says 212% potentiation
# AMPA receptor with TARP gamma-8 (native, rat hippocampal synaptosomes), sequence (Q8VHW5 whole entry): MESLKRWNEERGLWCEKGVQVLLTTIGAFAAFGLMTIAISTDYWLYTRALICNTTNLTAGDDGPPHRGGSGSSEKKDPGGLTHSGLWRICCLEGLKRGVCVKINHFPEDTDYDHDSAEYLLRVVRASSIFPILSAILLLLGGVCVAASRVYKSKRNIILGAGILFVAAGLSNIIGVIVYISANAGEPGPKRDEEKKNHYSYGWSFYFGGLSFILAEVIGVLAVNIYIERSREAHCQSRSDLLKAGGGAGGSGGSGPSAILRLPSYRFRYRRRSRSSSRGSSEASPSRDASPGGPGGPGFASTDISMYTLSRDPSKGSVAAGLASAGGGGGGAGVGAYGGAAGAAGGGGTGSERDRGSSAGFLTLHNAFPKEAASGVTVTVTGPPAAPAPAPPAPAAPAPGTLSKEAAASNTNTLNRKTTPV
# AMPA receptor with TARP gamma-8 (native, rat hippocampal synaptosomes), sequence (P19490 19-907): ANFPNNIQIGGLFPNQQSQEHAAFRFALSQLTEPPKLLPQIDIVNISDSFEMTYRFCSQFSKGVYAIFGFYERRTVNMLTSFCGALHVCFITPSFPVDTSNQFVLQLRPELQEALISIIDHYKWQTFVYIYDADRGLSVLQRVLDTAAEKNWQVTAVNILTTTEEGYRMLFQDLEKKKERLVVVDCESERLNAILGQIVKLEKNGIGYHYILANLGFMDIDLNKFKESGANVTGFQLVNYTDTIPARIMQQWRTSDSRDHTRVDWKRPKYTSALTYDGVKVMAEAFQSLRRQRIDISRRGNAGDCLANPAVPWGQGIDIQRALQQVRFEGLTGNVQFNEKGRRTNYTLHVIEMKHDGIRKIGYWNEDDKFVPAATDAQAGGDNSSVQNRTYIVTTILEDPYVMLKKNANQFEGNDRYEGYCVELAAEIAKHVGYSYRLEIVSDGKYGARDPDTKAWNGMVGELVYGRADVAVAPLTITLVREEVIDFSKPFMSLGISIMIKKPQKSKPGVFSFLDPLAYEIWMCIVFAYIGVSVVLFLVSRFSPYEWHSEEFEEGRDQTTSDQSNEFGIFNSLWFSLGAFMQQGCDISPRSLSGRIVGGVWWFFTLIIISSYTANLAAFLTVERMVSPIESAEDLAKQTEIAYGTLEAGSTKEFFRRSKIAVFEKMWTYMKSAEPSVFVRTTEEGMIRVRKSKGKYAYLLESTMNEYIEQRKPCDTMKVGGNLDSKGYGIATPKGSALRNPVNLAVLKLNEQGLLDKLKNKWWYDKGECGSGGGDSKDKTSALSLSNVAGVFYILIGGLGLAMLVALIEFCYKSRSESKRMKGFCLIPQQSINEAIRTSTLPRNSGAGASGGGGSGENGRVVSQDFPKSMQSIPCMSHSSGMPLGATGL
# AMPA receptor with TARP gamma-8 (native, rat hippocampal synaptosomes), sequence (P19491 22-883): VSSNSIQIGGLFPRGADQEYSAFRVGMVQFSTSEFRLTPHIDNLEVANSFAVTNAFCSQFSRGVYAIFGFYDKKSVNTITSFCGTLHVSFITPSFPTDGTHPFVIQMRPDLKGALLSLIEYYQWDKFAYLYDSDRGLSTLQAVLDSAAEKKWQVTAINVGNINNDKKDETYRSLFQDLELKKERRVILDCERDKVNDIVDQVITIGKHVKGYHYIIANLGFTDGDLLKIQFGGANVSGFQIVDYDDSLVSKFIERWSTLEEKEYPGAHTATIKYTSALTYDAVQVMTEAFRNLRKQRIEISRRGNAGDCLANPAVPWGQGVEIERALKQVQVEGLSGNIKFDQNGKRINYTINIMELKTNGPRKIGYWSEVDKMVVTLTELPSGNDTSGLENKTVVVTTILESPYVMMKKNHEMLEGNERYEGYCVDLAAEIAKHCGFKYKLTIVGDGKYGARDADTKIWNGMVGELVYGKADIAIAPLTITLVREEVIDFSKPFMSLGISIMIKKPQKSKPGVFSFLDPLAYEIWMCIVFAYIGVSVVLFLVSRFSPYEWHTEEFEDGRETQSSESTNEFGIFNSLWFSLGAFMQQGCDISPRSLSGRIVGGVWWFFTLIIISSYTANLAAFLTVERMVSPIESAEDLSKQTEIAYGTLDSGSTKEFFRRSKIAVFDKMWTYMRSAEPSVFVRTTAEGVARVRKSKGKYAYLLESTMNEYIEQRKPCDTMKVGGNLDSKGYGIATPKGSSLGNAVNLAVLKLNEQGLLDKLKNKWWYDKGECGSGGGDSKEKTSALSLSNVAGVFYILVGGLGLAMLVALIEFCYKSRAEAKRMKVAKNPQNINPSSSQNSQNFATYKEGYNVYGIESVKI
compound,measurement,setting,value
C[C@@H](c1ccc2[nH]c(=O)sc2c1)c1ccn(-c2ccc(OCCO)cn2)n1 [LY3130481],inhibition at 10 µM,[1],55 ± 6.8%
C[C@]12N[C@H](Cc3ccccc31)c1ccccc12 [MK801],% inhibition at 1 μM,[2]; non-competitive antagonist,100%
CC(C(O)c1ccc(O)cc1)N1CCC(Cc2ccccc2)CC1 (stereo not drawn) [ifenprodil],% inhibition at 10 μM,[2]; GluN2B-selective antagonist,75%
N#Cc1ccccc1-c1cc(-c2ccccn2)cn(-c2ccccc2)c1=O [perampanel],% inhibition at 30 μM,[3],91%
same,% inhibition at 30 μM,[4],97%
Cc1ccc(-c2nc3ccc(C)cn3c2CC(=O)N(C)C)cc1 [zolpidem],% of control at 1 μM,[5],212%
